In brackets after ≈: the same amount, converted by molar mass. Several values for one entry are separate records, joined by “and”; a condition that tells them apart may be missing. Identical values can stand only once. Entries after “also recorded” stand apart in the source; their conditions may differ. Like-named read-outs stand apart in the source and are kept apart here. Numbered stars: 1 amine (or outer) side, 2 acyl side, 3 side chain; on linkers, the order of the positions; unused ones are H or OH. Bridge positions count the residues as written; N and C are the ends. Square brackets hold non-standard residues; d marks the D form. Peptide text beside a SMILES is read from it. * marks the point of attachment. pTerphenylCO(4''-OnC5H11) = CCCCCOc1ccc(-c2ccc(-c3ccc(C(=O)*)cc3)cc2)cc1; Orn(4R-OH,5R-OH) = O=C([C@H](C[C@@H](O)[C@@H](O)N[*:3])N[*:1])[*:2]; hTyr(3S-OH,4S-OH) = N[C@H](C(=O)O)[C@H](O)[C@@H](O)c1ccc(O)cc1; Pro(3S-OH,4S-Me) = C[C@H]1CN[C@H](C(=O)O)[C@H]1O; Hyp = O=C(O)[C@@H]1C[C@@H](O)CN1
Experiments:
C. albicans = assay: In vitro susceptibility testing (CLSI M27-A3); type: cell-based; conditions: Candida albicans, 24 h
Procedure: (§1) Strains. Ten clinical Candida strains were used for the in vivo treatment studies, including four C. albicans, three C. glabrata, and three C. parapsilosis strains (Table 18). This group was selected to encompass phenotypic variability in susceptibility to triazoles and echinocandins and based on similar fitness in the animal model as defined by the amount of growth in control animals over 24 h. The organisms were maintained, grown, and quantified on Sabouraud's dextrose agar (SDA) plates.
(§2) In vitro susceptibility testing. All isolates were tested in accordance with the standards in CLSI document M27-A3. The MICs were determined visually after 24 h of incubation as the lowest concentration of drug that causes a significant diminution (≥50%) of growth compared to controls. MICs were determined on three separate occasions in duplicate.

C. glabrata = assay: In vitro susceptibility testing (CLSI M27-A3); type: cell-based, Candida glabrata; conditions: Nakaseomyces glabratus, 24 h
Procedure: as §1, §2

C. parapsilosis = assay: In vitro susceptibility testing (CLSI M27-A3); type: cell-based, Candida parapsilosis; conditions: Lodderomyces parapsilosis, 24 h
Procedure: as §1, §2

A. fumigatus AF293 = assay: Pulmonary aspergillosis in neutropenic ICR mice (Examples 14, 15), prophylaxis, survival; type: in vivo, Aspergillus fumigatus
Procedure: Pulmonary aspergillosis: ICR mice (10/grp) were made neutropenic by cyclophosphamide on Day −4 (150 mg/kg), and CPM/cortisone on Day −1 (150/175 mg/kg). Intranasal infection with A. fumigatus AF293 (10^5 CFU/mouse) on Day 0. Prophylaxis CD101 as a single dose (IP; 5, 10, 20 mg/kg) or posaconazole (PO; 2 and 10 mg/kg) 1 day prior to infection. Survival monitored for 10 days.
Pulmonary aspergillosis: ICR mice (10/grp) were made neutropenic by cyclophosphamide on Day −4 (150 mg/kg), and cyclophosphamide/cortisone was given on Day −1 (150/175 mg/kg). Intranasal challenge with A. fumigatus AF293 (10^5 CFU/mouse) was initiated on Day 0 and prophylaxis with CD101 as a single dose (IP; 5, 10, 20 mg/kg) or posaconazole (PO; 2 and 10 mg/kg) was started 1 day prior to infection. Survival was monitored for 10 days.

[1] = system: Aspergillus fumigatus strain AF293; assay: Murine model of pulmonary aspergillosis (Example 16), survival and lung burden; type: in vivo; conditions: for Group Geometric mean / Log10 Group Geometric mean / Log10 reduction from vehicle control: terminal lung burden
Procedure: Animal strain and housing. Mice used in these studies were supplied by Charles River (Margate UK) and were specific pathogen free. The strain of mice used was ICR (also known as CD1 Mice) which is a well characterized outbred murine strain. Male mice were 11-15 g on receipt and allowed to acclimatize for at least 7 days.
Immunosuppression. Mice were immunosuppressed on Day −4 with 150 mg/kg cyclophosphamide administered intraperitoneally (IP), and on Day −1 with 150 mg/kg cyclophosphamide IP and 175 mg/kg cortisone acetate administered subcutaneously (SC). To prevent bacterial infection due to the immunosuppression mice were given once daily 50 mg/kg ceftazidime.
Preparation of Organism and Infection. A. fumigatus strain AF293 inoculum was prepared from spore cultures grown on Sabouraud Dextrose agar (SAB) containing 50 μg/mL chloramphenicol (SABC) in vented tissue culture flasks. Following incubation for 7-10 days at 30° C., spore cultures were washed in sterile phosphate buffered saline (PBS) containing 0.05% Tween 80. Spore count was determined using a haemocytometer and spores were diluted in PBS to ˜6.9×10^6 CFU/mL. Inoculum concentration was confirmed by quantitative culture onto SABC agar.
Neutropenic mice lungs were infected with 0.04 mL (0.02 mL/nare) of ˜4.17×10^6 CFU/mL (˜1.67×10^5 CFU/mouse) of A. fumigatus AF293 by intranasal (IN) instillation under temporary 2.5% isoflurane induced anesthesia.
Preparation of Test Articles. Micafungin (Mycamine, Astellas) was provided as a 50 mg vial (Lot 02323002, expiry 08/2017) and was prepared as per manufacturer's instructions by adding 5 mL saline for injection (SFI) directly into the vial to make up a 10 mg/mL stock solution. This solution was then diluted further in SFI to a working concentration of 0.5 mg/mL. […] It was prepared fresh once and stored at 4° C. until required.
Posaconazole (Noxafil 40 mg/mL oral suspension, Merck Sharp & Dohme Limited) was provided as a 40 mg/mL oral suspension (Lot N00801, expiry 04/2019). This suspension was then diluted further in water for infection (WFI) to a working concentration of 0.2 and 1 mg/mL. The suspension was administered orally (PO) at 10 mL/kg for 2 and 10 mg/kg doses respectively, was prepared fresh once and stored at 4° C. until required.
Test article CD101 stock was prepared at 6 mg/mL in 10% DMSO/1% Tween 20 diluent. A clear non particulate solution was obtained following gentle mixing. […] All doses were administered IP at 10 mL/kg. The study doses were kept at 4° C. until required.
Treatment. For this study, treatments were initiated on Day 1 pre infection according to treatment groups outlined in Table 22. A total of 36 mice (6/treatment group) were used in the study.
Endpoints. The primary endpoint for this study was survival within agreed ethical limits (>20% weight loss, severe hypothermia <34° C., inability to reach food or drink, severe hunching). Mice were monitored by daily weight measurements with observations as frequently as clinical condition required.
Mice presenting with severe clinical deterioration were humanely euthanized using an overdose of pentobarbitone administered by IP injection following clinical assessment and the time of death was recorded. Animal carcasses were stored at −20° C. before quantitative assessment of burden.
Ten days post infection all surviving animals were weighed and had their clinical condition assessed prior to being euthanized. Final survival numbers were recorded and analysed as described below and carcasses frozen at −20° C. prior to further processing.
Lung burden. A secondary endpoint for the study was terminal lung tissue burden. Immediately following confirmation of death, carcasses were frozen at −20° C. prior to tissue dissection and processing. The frozen carcasses were thawed at room temperature, the lungs removed and placed into pre-weighed bead-beating tubes containing 2 mL of PBS and subjected to mechanical disruption. […]

[2] = system: A. fumigatus (ATCC 13073); assay: Disseminated infection of immune competent DBA/2 mice, prophylaxis, survival; type: in vivo, Aspergillus fumigatus; conditions: 3 mg/kg IP 1 hour after infection
Procedure: A. fumigatus (ATCC 13073) growth was taken from 96 hour potato dextrose agar (PDA) and re-suspended in 0.1% Tween 20. The culture was resuspended in 1 mL cold PBS (>1.0×10^8 CFU/mL, OD620 2.3-2.8). The culture was then diluted in PBS to final cellular densities of 1.0×10^7 CFU/mL. The actual colony counts were determined by plating dilutions on PDA plates to confirm inoculation concentration. The actual inoculum count was 1.30×10^7 CFU/mL.
Groups of 6 immune competent female DBA/2 mice weighing 18±2 g were used. On Day 0, animals were inoculated (0.1 mL/mouse) by intravenous (IV) injection into the tail vein with A. fumigatus (ATCC 13073), 1.30×10^6 CFU per mouse. CD101 at 3, 10 and 30 mg/kg as prophylaxis was administered subcutaneously (SC) once starting 5, 3 or 1 day before inoculation. In addition, CD101 at 3 mg/kg SC and the reference, amphotericin B, at 3 mg/kg by intraperitoneal (IP) injection were administered one hour after infection (See Table 2).
A 50 percent or more (≥50%) increase in the survival rate compared to the vehicle control group indicates significant anti-infective activity. The health observations including body weight, hunched posture, ruffled fur, immobility and hypothermia were recorded daily for 14 days.

Candida auris = assay: Murine model of disseminated candidiasis (immunosuppressed CD-1 mice), treatment; type: in vivo; conditions: 0.3 mg/kg IP, 2 doses; Day 14
Procedure: Female 6-8 week old CD-1 mice were immunosuppressed with cyclophosphamide (200 mg/kg) 3 days prior to infection and 150 mg/kg 1 day post-infection. On the day of infection, mice were inoculated with 3×10^7 C. auris blastospores via the lateral tail vein. Mice were randomized into 5 groups (n=5 for colony forming units (CFU) and n=10 for survival): CD101 20 mg/kg administered by intraperitoneal (IP) injection, fluconazole 20 mg/kg administered per os (PO), amphotericin B 0.3 mg/kg IP, and a vehicle control. Treatments were administered 2 hours post-infection (Day 1) and again on Day 4 of the study for a total of 2 doses. Mice were monitored daily and a survival curve was generated. CFU groups were sacrificed on Day 8 of the study. One kidney was removed from each mouse, homogenized, plated on potato dextrose agar (PDA), and incubated at 35° C. for 2 days to determine CFU. The remaining survival mice were monitored until the end of the study (Day 14).

[3] = system: A. fumigatus (ATCC 13073); assay: Disseminated infection of neutropenic ICR mice, prophylaxis, survival; type: in vivo, Aspergillus fumigatus; conditions: 3 mg/kg IP 1 hr after infection
Procedure: Inoculum Preparation. A. fumigatus (ATCC 13073) growth was taken from 96 hr potato dextrose agar (PDA) and re-suspended in 0.1% Tween 20. The culture was resuspended in 1 mL cold PBS (>1.0×10^8 CFU/mL, OD620 2.3-2.8). The culture was then diluted in PBS to final cellular densities of 2.0×10^5 CFU/mL. The actual colony counts were determined by plating dilutions on PDA plates to confirm inoculation concentration. The actual inoculum count was 1.85×10^5 CFU/mL.
A. fumigatus (ATCC 13073) disseminated infection (IV). Groups of 6 female ICR mice weighing 22±2 g were used. Animals were immunosuppressed by three intraperitoneal (IP) injections of cyclophosphamide (the first at 6 mg/mouse 3 days before inoculation, the second and third at 2 mg/mouse on Day 1 then Day 4 after inoculation). On Day 0, animals were inoculated (0.1 mL/mouse) by intravenous (IV) injection into the tail vein with A. fumigatus (ATCC 13073), 1.85×10^4 CFU per mouse. CD101 at 5, 10 and 20 mg/kg as prophylaxis was administered subcutaneously (SC) once starting 5, 3 or 1 day before inoculation. […]
A 50 percent or more (≥50%) increase in the survival rate compared to the vehicle control group indicates significant anti-infective activity. The health observations including body weight, hunched posture, ruffled fur, immobility and hypothermia were recorded daily for 14 days. Animals found moribund were to be humanely sacrificed with CO2 asphyxiation in the study.

## CCCCCOc1ccc(-c2ccc(-c3ccc(C(=O)N[C@H]4C[C@@H](O)[C@@H](O)NC(=O)[C@@H]5[C@@H](O)[C@@H](C)CN5C(=O)[C@H]([C@@H](C)O)NC(=O)[C@H]([C@H](O)[C@@H](O)c5ccc(O)cc5)NC(=O)[C@@H]5C[C@@H](O)CN5C(=O)[C@H]([C@@H](C)O)NC4=O)cc3)cc2)cc1 [Anidulafungin, anidulafungin, reference compound] ({pTerphenylCO(4''-OnC5H11)}-[Orn(4R-OH,5R-OH)]T[Hyp][hTyr(3S-OH,4S-OH)]T[Pro(3S-OH,4S-Me)]; lactam 1-C)
C. albicans; strain 98-17
  MIC: 0.03 µg/mL (≈ 0.0263 µM)
C. albicans; strain 98-210
  MIC: 0.015 µg/mL (≈ 0.0132 µM)
C. albicans; strain 580
  MIC: 0.015 µg/mL (≈ 0.0132 µM)
C. albicans; strain K-1
  MIC: 0.015 µg/mL (≈ 0.0132 µM)
C. glabrata; strain 5592, read-out: MIC
  MIC: 0.06 µg/mL (≈ 0.0526 µM)
C. glabrata; strain 10956 (FKS2_HS1_F659V)
  MIC: 1 µg/mL (≈ 0.877 µM)
C. glabrata; strain 35315, read-out: MIC
  MIC: 0.25 µg/mL (≈ 0.219 µM)
C. parapsilosis; strain 20423.072
  MIC: 1 µg/mL (≈ 0.877 µM)
C. parapsilosis; strain 20477.048
  MIC: 2 µg/mL (≈ 1.75 µM)
C. parapsilosis; strain 20519.069
  MIC: 4 µg/mL (≈ 3.51 µM)

## CC[C@@H]([C@H](C)O)n1ncn(-c2ccc(N3CCN(c4ccc(OC[C@@H]5CO[C@@](Cn6cncn6)(c6ccc(F)cc6F)C5)cc4)CC3)cc2)c1=O [Posaconazole, posaconazole]
A. fumigatus AF293; 2 mg/kg PO one day prior to infection, 10 days
  survival rate: no survivors
A. fumigatus AF293; 10 mg/kg PO one day prior to infection, vs control
  survival rate: statistically-significant increase in survival rate relative to control
[1]; 2 mg/kg PO once, Day −1
  Mean Survival: 77.5 h
  Median Survival: 69.0 h
  survival time post infection, range: 69 to 114 h
[1]; 2 mg/kg once one day pre-infection
  survival vs vehicle (conclusion): did not show any improvement in survival
[1]; 10 mg/kg PO once, Day −1
  Mean Survival: 212 h and 211.5 h
  Median Survival: could not be estimated; also recorded: cannot estimate
  survival time post infection, range: 69 to 240 h
[1]; 10 mg/kg PO once, Day −1, 6 mice per group, 10 days
  mice that survived to the end of the study: 5 mice
[1]; 10 mg/kg once 1 day pre-infection
  mice surviving to the end of the study: > 80%
[1]; 2 mg/kg PO Day −1
  Group Geometric mean: 1.14 × 10^4 CFU/g
  Log10 Group Geometric mean: 4.06 CFU/g
  Log10 reduction from vehicle control: 0.11 CFU/g
[1]; 10 mg/kg PO Day −1
  Group Geometric mean: 2.75 × 10^3 CFU/g
  Log10 Group Geometric mean: 3.44 CFU/g
  Log10 reduction from vehicle control: 0.73 CFU/g

## C[C@@H]1[C@H](O)[C@@H](C)/C=C/C=C/C=C/C=C/C=C/C=C/C=C/[C@H](O[C@@H]2O[C@H](C)[C@@H](O)[C@H](N)[C@@H]2O)C[C@@H]2O[C@](O)(C[C@@H](O)C[C@@H](O)[C@H](O)CC[C@@H](O)C[C@@H](O)CC(=O)O[C@H]1C)C[C@H](O)[C@H]2C(=O)O [amphotericin B, reference compound]
[2]
  14-day survival: significant increase in the 14-day survival
Candida auris
  percent survival at the end of the study: 30%
[3]
  14-day survival: significant increase in the 14-day survival
